{"source": "patent US20230372318A1", "about": "“METHODS FOR TREATING A SUBJECT HAVING MULTIPLE SYSTEM ATROPHY” (Theravance Biopharma R&D IP, LLC, priority 2022, published 2023)", "key": {"[1]": {"molecular_target": "T1, human recombinant NET (Homo sapiens, UniProt P23975)", "T1 construct": "expressed in transfected cells; host or cells: HEK293", "T1 sequence (P23975 whole entry)": "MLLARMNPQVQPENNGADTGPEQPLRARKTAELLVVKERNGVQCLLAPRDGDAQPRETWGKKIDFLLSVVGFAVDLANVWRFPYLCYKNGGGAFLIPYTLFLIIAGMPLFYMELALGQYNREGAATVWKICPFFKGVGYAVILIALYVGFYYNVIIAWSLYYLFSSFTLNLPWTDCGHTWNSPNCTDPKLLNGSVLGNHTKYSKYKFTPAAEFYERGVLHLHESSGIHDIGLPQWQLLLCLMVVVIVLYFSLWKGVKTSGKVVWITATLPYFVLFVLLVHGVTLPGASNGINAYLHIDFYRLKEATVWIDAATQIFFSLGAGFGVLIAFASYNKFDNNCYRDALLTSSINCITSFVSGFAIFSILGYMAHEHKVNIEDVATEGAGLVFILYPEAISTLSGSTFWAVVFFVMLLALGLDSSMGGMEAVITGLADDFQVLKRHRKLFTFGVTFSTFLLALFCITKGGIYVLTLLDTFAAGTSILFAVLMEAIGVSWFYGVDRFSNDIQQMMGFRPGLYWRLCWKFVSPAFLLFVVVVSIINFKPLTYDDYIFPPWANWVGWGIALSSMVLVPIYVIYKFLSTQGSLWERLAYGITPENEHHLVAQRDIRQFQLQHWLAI", "test": "Radioligand binding, [3H]-nisoxetine, HEK293-hNET membranes", "conditions": "mean (95% confidence intervals)", "source_text": "The in vitro pharmacology of ampreloxetine at human recombinant and rat native monoamine transporters was characterized as described in Smith et al., Inter. J. Neuropsychopharmcol. (2015) 1-11; and Tsuruda et al., J. Pharmacol. Toxicol. Meth. (2010) 61:192-204. See also, e.g., U.S. Pat. Nos. 8,304,432 B2 and 8,304,433 B2. Radioligands were sourced commercially (Perkin Elmer LifeSciences or GE Healthcare Life Sciences).\nBriefly, membranes prepared from HEK293 (Human Embryonic Kidney 293) or CHO-K1 (Chinese Hamster Ovary-K1) cells stably transfected with human recombinant SERT (HEK293-hSERT), NET (HEK293-hNET), or DAT (CHO-K1-hDAT) were incubated for 1 hr at 22° C. in the absence, or presence, of 4-[2-(2,4,6-trifluorophenoxymethyl)phenyl]piperidine and [^3H]-citalopram (1.0 nM) for SERT, [^3H]-nisoxetine (2.0 nM) for NET, and [^3H]-WIN35428 (3.0 nM) for DAT in 50 mM Tris-HCl, 120 mM NaCl, 5 mM KCl, 0.025% BSA, 100 μM ascorbic acid, pH 7.4. Rat cortical membrane preparations were incubated with [^3H]-citalopram (2.0 nM) for SERT or [^3H]-nisoxetine (4.0 nM) for NET for 1 hr at 22° C. […] Binding and uptake assays were terminated by rapid filtration and radioactivity determined by liquid scintillation spectroscopy. […] Selectivity for NET (rounded to one significant figure) was determined as follows: […]"}, "[2]": {"molecular_target": "T2, NET (Rattus norvegicus, UniProt Q63380)", "T2 construct": "from tissue; host or cells: lumbar spinal cord of orally dosed male Sprague Dawley rats", "T2 sequence (Q63380 1-617)": "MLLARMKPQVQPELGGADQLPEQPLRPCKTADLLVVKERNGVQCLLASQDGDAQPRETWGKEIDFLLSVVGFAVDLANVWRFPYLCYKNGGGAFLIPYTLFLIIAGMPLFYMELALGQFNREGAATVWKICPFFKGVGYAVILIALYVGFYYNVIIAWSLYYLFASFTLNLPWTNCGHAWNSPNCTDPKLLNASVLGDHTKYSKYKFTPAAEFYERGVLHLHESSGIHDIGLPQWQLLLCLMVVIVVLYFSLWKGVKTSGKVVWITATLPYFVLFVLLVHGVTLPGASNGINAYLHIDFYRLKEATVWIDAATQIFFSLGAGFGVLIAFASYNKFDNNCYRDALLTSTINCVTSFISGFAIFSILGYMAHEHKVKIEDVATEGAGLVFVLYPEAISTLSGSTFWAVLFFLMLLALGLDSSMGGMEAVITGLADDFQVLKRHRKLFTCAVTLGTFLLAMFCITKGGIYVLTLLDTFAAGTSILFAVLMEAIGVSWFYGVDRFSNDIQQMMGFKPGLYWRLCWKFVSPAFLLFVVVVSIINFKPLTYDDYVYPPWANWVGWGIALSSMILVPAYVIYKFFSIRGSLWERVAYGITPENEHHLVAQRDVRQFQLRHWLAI", "test": "Ex vivo transporter occupancy in rat spinal cord (NET)", "protocol": "Adult male Sprague Dawley rats (Charles River) were housed under controlled laboratory conditions (temperature at 21±1° C.) on a 12:12 hour light-dark cycle. Animals were given free access to food and water upon arrival to the facility and animals were acclimatized to their holding room for at least 48 hours. Animals were fasted but allowed free access to water for 15-18 hours prior to dosing.\nRats (n=6/timepoint/dose level) received a single oral dose of 4-[2-(2,4,6-trifluorophenoxymethyl)phenyl]piperidine (0.3, 1, 5, 10, 30, and 60 mg/kg) and were euthanized by decapitation at specified time points (0.5, 2, 4, 6, and 8 hr for 5 mg/kg dose level; 2 hr for 0.3, 1, 10, 30, and 60 mg/kg dose levels) post-administration. Spinal cords were dissected for ex vivo transporter occupancy and PK assessments from the same animals. The spinal cord was harvested by hydraulic extrusion using phosphate-buffered saline, and the lumbar segment dissected and frozen on dry ice. The remaining spinal cord segments were collected and homogenized in water (25% w/w) for PK analysis. All samples were stored at −80° C. until analysis.\nA kinetic radioligand binding assay was used to determine NET and SERT occupancy in rat spinal cord, as described previously in Bourdet et al., J. Pharm. Exp. Ther. (2012) 341:137-145. PK/PD parameters were estimated by a compartmental modeling approach (WinNonlin Version 5.0.1, Pharsight Corporation). One- and two-compartment PK models with first-order absorption and elimination were evaluated. The one-compartment model was selected. The pharmacodynamics model was an effect compartment Emax model linked directly to the central PK compartment (WinNonlin PK Model 3, PD Model 101). Selection of models was based upon best fit in terms of visual inspection, Akaike Information Criteria, and weighted residual sum of squares using the Gauss-Newton minimization method."}, "[3]": {"molecular_target": "T3, cytochrome P450 1A2 (CYP1A2) (Homo sapiens, UniProt P05177)", "T3 construct": "from tissue; host or cells: in vivo, healthy human subjects (as reported in Kanodia et al. 2021)", "T3 sequence (P05177 whole entry)": "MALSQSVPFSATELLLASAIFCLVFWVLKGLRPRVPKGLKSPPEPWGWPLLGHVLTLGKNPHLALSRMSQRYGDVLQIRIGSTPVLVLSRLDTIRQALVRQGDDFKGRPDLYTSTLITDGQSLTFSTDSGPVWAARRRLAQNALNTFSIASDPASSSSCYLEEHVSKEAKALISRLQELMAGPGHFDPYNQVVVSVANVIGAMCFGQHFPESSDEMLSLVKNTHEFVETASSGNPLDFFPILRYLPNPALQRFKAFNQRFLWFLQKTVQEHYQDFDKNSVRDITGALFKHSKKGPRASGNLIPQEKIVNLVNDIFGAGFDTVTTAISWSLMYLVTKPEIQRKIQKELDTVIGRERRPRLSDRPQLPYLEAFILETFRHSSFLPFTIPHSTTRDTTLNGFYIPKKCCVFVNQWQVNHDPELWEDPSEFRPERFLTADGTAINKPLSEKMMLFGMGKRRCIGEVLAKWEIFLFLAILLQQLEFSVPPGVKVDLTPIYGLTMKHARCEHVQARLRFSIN", "conditions": "healthy subjects, cited from earlier work"}, "[4]": {"tested_on": "healthy subjects", "conditions": "single dose up to 50 mg and multiple doses up to 20 mg once per day; cited from earlier work"}, "[5]": {"tested_on": "subjects with attention-deficit hyperactivity disorder and fibromyalgia", "conditions": "5 mg or 20 mg once per day for 6 weeks; cited from earlier work"}, "[6]": {"tested_on": "subjects with symptomatic nOH", "conditions": "cited from earlier work"}, "[7]": {"tested_on": "subjects with primary autonomic failures (MSA, PD, or PAF) and symptomatic nOH", "test": "Phase 3 4-week clinical study in symptomatic nOH (Example 6)", "quoted_text": "The first Phase 3 study was a randomized, double-blind, placebo-controlled, parallel-group, multicenter study designed to evaluate its efficacy, safety, and tolerability in subjects with primary autonomic failures (MSA, PD, or PAF) and symptomatic nOH after 4 weeks of treatment.\nThis study was a Phase 3, randomized, double-blind, placebo-controlled, parallel-group, multicenter study to evaluate efficacy, safety, and tolerability of ampreloxetine (administered as ampreloxetine hydrochloride) in subjects with primary autonomic failures (MSA, PD, or PAF) and symptomatic nOH after four weeks of treatment. Subjects participated in the study for approximately 10 weeks.\nSubjects were randomized in a 1:1 ratio to each of either ampreloxetine or placebo group stratified by the subject's disease type (MSA, PD, or PAF).\nSubjects were randomized in a 1:1 ratio to receive either ampreloxetine (test product) or placebo (reference product) once daily through the end of the treatment period.\nSubjects randomized to receive ampreloxetine began taking study medication on Day 2 in the morning at a dose of 10 mg and continued to take this dose once daily through the end of the treatment period.\nThe study consisted of three periods: (i) 4-week screening, (ii) 4-week randomized treatment, and (iii) 2-week follow up.\nFollowing randomization and completion of study assessments, the subject received a single 10-mg dose of ampreloxetine (or matching placebo) once daily (QD) for the remaining double-blind treatment period.\nThe efficacy assessments for this study included: OHQ; PGI-C; and incidence of falls. The exploratory assessments included: Orthostatic standing test; PK and pharmacodynamics; Non-Motor Symptom Scale (NMSS); EQ-5D-5L; Hospital Anxiety and Depression Scale (HADS); and Burden Scale for Family Caregivers-short version (BSFC-s).\nThe primary study endpoint was the change from baseline in OHSA #1 (dizziness, lightheadedness, feeling faint, or feeling like blacking out) at Week 4.\nThe primary efficacy evaluation was the change from baseline of OHSA #1 at Week 4. Baseline was defined as Day 1 pre-dose measurement. A mixed model for repeated measures (MMRM) was fitted to compare treatments. The model included fixed effect class terms of treatment, baseline disease type (MSA, PD, PAF), week, and continuous covariate of baseline OHSA #1 score, a random subject effect, with an unstructured covariance structure using the FAS."}, "[8]": {"conditions": "MSA subjects, Week 4, 10 mg, N 33"}}, "note": "“Also recorded” adds a separate entry of the source.", "data": [{"smiles": "Fc1cc(F)c(OCc2ccccc2C2CCNCC2)c(F)c1", "note": "[Ampreloxetine, 4-[2-(2,4,6-trifluorophenoxymethyl)phenyl]piperidine]", "values": [{"measurement": "Transporter Binding: pKi, NET", "setting": "[1]", "result": "8.8 (8.8, 8.9)"}, {"measurement": "EC50", "setting": "[2]; projected from rat EC50 accounting for species differences in plasma protein binding", "result": 17.1, "unit": "nM"}, {"measurement": "EC50, plasma concentration associated with 50% NET occupancy", "setting": "[2]; rat spinal cord, oral dose", "result": 0.0117, "unit": "µg/mL"}, {"measurement": "Emax, maximal NET occupancy in spinal cord", "setting": "[2]; rat, single oral dose, effect compartment PK/PD model", "result": 92.0, "unit": "% occupancy"}, {"measurement": "keo, first-order equilibration rate constant, NET", "setting": "[2]; rat, central PK compartment to effect compartment", "result": 1.78, "unit": "h⁻¹"}, {"measurement": "Enzyme responsible for metabolism", "setting": "[3]; CYP1A2", "result": "primary enzyme responsible for ampreloxetine metabolism"}, {"measurement": "Fraction eliminated through metabolism", "setting": "[3]", "result": "> 90", "unit": "%"}, {"measurement": "Safety and tolerability", "setting": "[4]", "result": "generally well tolerated"}, {"measurement": "Safety and tolerability", "setting": "[5]", "result": "generally well tolerated with no clinically significant safety signals"}, {"measurement": "Improvement in standing time", "setting": "[6]; Part A, 4 hours after dosing at 10 mg", "result": "approximately 100 seconds"}, {"measurement": "Dose response of single ascending doses", "setting": "[6]; Part A, up to 20 mg", "result": "no dose response was observed"}, {"measurement": "SBP following 3 minutes of standing", "setting": "[6]; Part B, up to 15 mg, 4- and 7-hours post-dose", "result": "sustained increase in SBP over baseline"}, {"measurement": "Improvement from baseline of at least 2 points in OHSA #1 score", "setting": "[6]; Part C, open-label 3-20 mg once-daily up to 20 weeks", "result": "A large proportion of subjects met this endpoint"}, {"measurement": "Deaths", "setting": "[7]; 10 mg once daily, 4 weeks", "result": "no deaths were reported"}, {"measurement": "Supine hypertension", "setting": "[7]; 10 mg once daily, 4 weeks", "result": "no signal for supine hypertension"}, {"measurement": "Serious adverse events, number of subjects", "setting": "[7]; 10 mg once daily, 4 weeks, none considered related to study drug", "result": "four"}, {"measurement": "Anxiety Total Score, Change from Baseline, LS Mean Difference", "setting": "[7]; MSA subjects, Week 4, 10 mg vs placebo, P-value 0.136", "result": "−1.09"}, {"measurement": "Anxiety Total Score, Change from Baseline, LS Mean", "setting": "[7]; [8]", "result": "−0.75"}, {"measurement": "Anxiety Total Score, Change from Baseline, Mean", "setting": "[7]; [8]", "result": "−0.67"}, {"measurement": "Anxiety Total Score, Change from Baseline, Median", "setting": "[7]; [8]", "result": "−1.00"}, {"measurement": "Primary endpoint: change from baseline of OHSA #1 score vs placebo", "setting": "[7]; Week 4, 10 mg once daily, MSA, PD or PAF", "result": "did not meet its primary endpoint; also recorded: did not meet the primary endpoint"}]}]}
